Assay results from patent publication CN113004196A, “N-(苯甲氧基)-2-氯烟酰胺类化合物及其制备方法和应用” (Zhejiang University of Technology ZJUT, priority 2021, dated 2021).

Experiments:
[1] = tested on: lettuce seeds [生菜(Lettuce)种子]; test: Herbicidal activity test, seed germination inhibition in 24-well plate, lettuce; type: in vivo; conditions: 1 mM
[2] = tested on: bentgrass (Agrostis) seeds [剪股颖(Agrostis)的种子]; test: Herbicidal activity test, seed germination inhibition in 24-well plate, bentgrass; type: in vivo

Structure (SMILES)	inhibition of lettuce seeds [1]	inhibition of germination of Agrostis seeds ([2]; 33 μM)	further results
O=C(NOCc1cnc(Cl)s1)c1cccnc1Cl [I-1]	一定抑制作用	较好的抑制	
O=C(NOCc1ccc(Cl)cc1Cl)c1cccnc1Cl [I-2]	一定抑制作用		
O=C(NOCc1ccc(Br)cc1)c1cccnc1Cl [I-5]	一定抑制作用		
CC(C)(C)c1ccc(CONC(=O)c2cccnc2Cl)cc1 [I-8]		较好的抑制	inhibition of germination of Agrostis seeds ([2]; 10 μM): 较好的抑制
O=C(NOCc1ccccc1Br)c1cccnc1Cl [I-10]		较好的抑制	
O=C(NOCc1ccccc1Cl)c1cccnc1Cl [I-14]			inhibition of germination of Agrostis seeds ([2]; 333 μM): 完全抑制
